Data from paper PMC10688702, “The indole motif is essential for the antitrypanosomal activity of N^5-substituted paullones” (PLOS ONE, 2023).
In brackets after ≈: the same amount, converted by molar mass.

Assays:
[1] = Thermodynamic aqueous solubility, shake-flask method and HPLC-UV; assay type: physicochemical; conditions: phosphate-buffered saline, aqueous buffer, thermodynamic from solid, PBS pH 7.4, 25°C, up to 72 h, HPLC-UV, logS of molar solubility [M]
Experimental: (§1) Phosphate-buffered saline pH 7.4 was prepared according to the European Pharmacopeia 10.4 by dissolving 2.38 g sodium monohydrogen phosphate dodecahydrate, 0.19 g potassium dihydrogen phosphate and 8.0 g sodium chloride in demineralised water (to a total volume of 1000 mL). The pH was adjusted to a value of 7.4 with hydrochloric acid. The buffer was filtered through a 0.45 μm membrane filter (Chromafil® Xtra PES-45/25) before use.
The thermodynamic aqueous solubility was determined by a miniaturised shake-flask method. […] A negative control with the buffer (400 μL) was incubated for every time point and measured likewise. After incubation for 24 h, 48 h and 72 h, the vials were checked for undissolved compound; then the filter plunger was punched into the vial for filtration. […] The calibration curve was obtained from at least three dilutions and five measuring points from a DMSO stock solution of the respective compound.

[2] = Kinetic aqueous solubility by nephelometry; assay type: physicochemical; conditions: phosphate-buffered saline, aqueous buffer, kinetic from dmso stock, PBS pH 7.4, 1% DMSO, 25°C, logS = decadic logarithm of molar solubility [M]
Experimental: as §1
The kinetic aqueous solubility was determined by nephelometry. The measurements were performed on the NEPHELOstar Plus, with accompanying software Omega 5.11 and MARS 3.20 (BMG LABTECH, Ortenberg, Germany). Generally, 2 dilution series of 1–2 weighed portions of each substance were measured. First, stock solutions of the compounds were prepared in DMSO. A series of dilutions in DMSO were prepared from one stock solution to obtain at least 3 concentrations below and 3 concentrations above the precipitation point in the measured series. The specific concentrations were usually measured as duplicates.
The 96-well plate (Corning UV transparent flat-bottom 96-well plate, Corning Incorporated, Kennenbunk, ME, USA) was inspected for contamination and scratches and measured without samples prior to the solubility measurement of the compounds. 198 μL of phosphate-buffered saline pH 7.4 was placed in a 96 well plate for each well to be measured. 2 μL of a DMSO solution was added and immediately mixed by moving the pipette plunger. This solution either contained no substance—and served as a blank for the measurement (3 wells)—or the respective DMSO dilution of the substance (2–4 wells). The concentration of the solvent DMSO in each measured solution was 1%. The concentration of the compound corresponds to a 1:100 dilution compared to the respective DMSO dilution. The well plate bottom was cleaned with a lint-free cloth and compressed air and inspected for impurities before measurement. After shaking at 500 rpm for 10 s (double orbital), the measurement was carried out in the nephelometer with the laser intensity set to 80% and beam focus of 2.5 mm at a temperature of 25°C.
The obtained measuring points, relative nephelometric units (RNU) per compound concentration, were used to model two straight lines: one straight line with constant low readings and slope → 0 characterises the concentration range where no precipitation has taken place yet; The other straight line has a steep slope and increase of the RNU per concentration and characterises the concentrations at which precipitation takes place in the respective sample vessels.
The evaluation was carried out by calculating the two straight lines and their point of intersection. Outliers and values in a saturation range for the kick-off curve (usually >800 kRNU) were not used to create the straight lines and are listed separately in the evaluation file. […] The x-value of the intersection of the two straight lines represents the kinetic solubility. The results of two dilution series are additionally indicated as range (in brackets). For measurements of 3 or more series, a mean value with standard deviation is provided. The logS value describes the decadic logarithm of the molar solubility: logS (molar solubility [M]).

[3] = system: bloodstream form of T. b. brucei strain 427; assay: Viability assay for T. b. brucei (whole parasite, bioluminescence); assay type: cell-based; conditions: 24 h; for T. b. brucei (BS) proliferation [% at 10 μM]: 10 μM compound; for EC50: Trypanosoma brucei, read-out: T. b. brucei (BS) [EC50
Experimental: Viability assay for T. b. brucei. The bloodstream form of the monomorphic T. b. brucei strain 427, cell line 5141313, constitutively and stably expressing an ectopic copy of the Photinus pyralis red-shifted luciferase, was cultured in vitro with HMI-9 medium, supplemented with 10% fetal bovine serum, 10 U/mL penicillin (Gibco), 10 μg/mL streptomycin (Gibco), 0.2 μg/mL bleomycin (Jena Bioscience), 4 μg/mL G418 disulfate salt (Sigma-Aldrich) and 0.2 μg/mL puromycin (Invitrogen), inside a humidified incubator (Thermo Fisher Scientific) with controlled temperature (37°C) and CO2 (5%) in a 25 or 75 cm^2 vented-cap culture-flask. The anti-trypanosomal activity of compounds was evaluated in a 96-well culture plate containing 2.2 μL/well DMSO (negative control) or compounds dissolved in DMSO (1% final concentration), and 220 μL/well of a suspension of 1 × 10^5 parasites/mL. The plates were incubated at 37°C and 5% CO2 for 24 h. Next, each well was transferred to a 96-well black plate, and 20 μL of a solution containing d-luciferin (1.5 mg/mL in PBS glucose 1% w/v) and Triton X-100 (0.05% v/v) was added. Bioluminescence signal was measured in a LUMIstar OPTIMA Microplate luminometer using the following settings: 10 s shaking, 5 s/well acquisition, 0.2 s measurement delay, maximum gain, and 37°C. For the bioluminescence assay, parasite viability was calculated according to the following formula: parasiteviability%=BLcpd-BLblank/BLneg-BLblank*100%
BL refers to the mean of bioluminescence signal corresponding to the tested compound (cpd), the blank (blank, complete media containing 1% v/v DMSO), or the negative control (neg, parasites treated with 1% v/v DMSO). EC50 values were determined from concentration-response curves fitted to a four-parameter sigmoid equation using the GraphPad Prism software (version 6.0). All errors are expressed as one SD, estimated as σ^n-1. For a detailed explanation of the protocol, see Dibello et al..

Structure (SMILES) | solubility thermodynamic at 72 h [1] | solubility kinetic at 10 s [2] | T. b. brucei (BS) proliferation [% at 10 μM] [3] | EC50 [3]
CNCCNC(=O)CN1C(=O)Cc2c([nH]c3ccc(I)cc23)-c2ccc(Cl)cc21 [1f, 2-(3-Chloro-9-iodo-6-oxo-7,12-dihydrobenzo[2,3]azepino[4,5-b]indol-5(6H)-yl)-N-[2-(methylamino)ethyl]acetamide] | 1.7e-06 M (≈ 0.888 µg/mL) | 2.95e-05 M (≈ 15.4 µg/mL) | 0.0 ± 1.7% | 6.4 ± 1.7 µM
CNCCNC(=O)CN1C(=O)Cc2c([nH]c3ccc(Cl)cc23)-c2ccc(Cl)cc21 [1g, 2-(3,9-Dichloro-6-oxo-7,12-dihydrobenzo[2,3]azepino[4,5-b]indol-5(6H)-yl)-N-[2-(methylamino)ethyl]acetamide] | 1.29e-05 M (≈ 5.56 µg/mL) | 4.79e-05 M (≈ 20.6 µg/mL) | 0.0 ± 0.3% | 4.7 ± 1.1 µM
CNCCNC(=O)CN1C(=O)Cc2c([nH]c3ccc(C(F)(F)F)cc23)-c2ccc(Cl)cc21 [1h, 2-(3-Chloro-6-oxo-9-trifluoromethyl-7,12-dihydrobenzo[2,3]azepino[4,5-b]indol-5(6H)-yl)-N-[2-(methylamino)ethyl]acetamide] | < 2.95e-07 M | 4.27e-05 M (≈ 19.8 µg/mL) | 0.9 ± 1.3% | 6.6 ± 1.1 µM
